# In patent publication US9597316B2, “Indole compounds for use in treating inflammation and cancer” (BIOVENTURES LLC, priority 2012, dated 2017):
# System: NCI/ADR-RES (Ovarian Cancer)
# Test: five dose-response growth inhibition/cytotoxicity, NCI/ADR-RES
# Type: cell-based, human
# Details: not given
row,Structure (SMILES),GI50 [nM]
1,COc1ccc(C(=O)n2cc(C=C3C(=O)NC(=S)NC3=O)c3cc(OC)ccc32)cc1 [Compound 3k],2910

# Same assay, conditions: read-out: LC50 (the source's name)
row,Structure (SMILES),CC50 [nM]
1,COc1ccc(C(=O)n2cc(C=C3C(=O)NC(=S)NC3=O)c3cc(OC)ccc32)cc1 [Compound 3k],> 50000

# System: leukemia cell lines in the panel
# Test: five dose-response growth inhibition, leukemia cell lines in the panel
# Type: cell-based, human
# Details: all four leukemia cell lines in the panel; read-out: GI50 values in the range
# Protocol: (§1) The preliminary evaluation of compounds 3a-z was carried out at a single dose of 10 μM, against a panel of 60 human tumor cell lines, according to the procedure described by Rubinstein et al., Natl. Cancer. […] The human tumor cell line panel included leukemia, non-small cell lung, colon, central nervous system (CNS), melanoma, ovarian, renal, prostate, and breast cancer cell lines.
# (§2) Dose-response curves were created by plotting cytotoxic effect against the log10 of the drug concentration for each cell line. Cytotoxic effects of each compound were determined as GI50 and LC50 values, which represent the molar drug concentration for causing 50% growth inhibition, and the concentration that kills 50% of the cells, respectively.
row,Structure (SMILES),GI50 [nM]
1,COc1ccc(C(=O)n2cc(C=C3C(=O)NC(=S)NC3=O)c3cc(OC)ccc32)cc1 [Compound 3k],1450 to 3910

# System: SF-539 (CNS Cancer)
# Test: five dose-response growth inhibition/cytotoxicity, SF-539
# Type: cell-based, human
# Details: not given
row,Structure (SMILES),GI50 [nM]
1,COc1ccc(C(=O)n2cc(C=C3C(=O)NC(=S)NC3=O)c3cc(OC)ccc32)cc1 [Compound 3k],2560

# Same assay, conditions: read-out: LC50 (the source's name)
row,Structure (SMILES),CC50 [nM]
1,COc1ccc(C(=O)n2cc(C=C3C(=O)NC(=S)NC3=O)c3cc(OC)ccc32)cc1 [Compound 3k],> 50000

# System: SF-268 (CNS Cancer)
# Test: five dose-response growth inhibition/cytotoxicity, SF-268
# Type: cell-based, human
# Details: not given
row,Structure (SMILES),GI50 [nM]
1,COc1ccc(C(=O)n2cc(C=C3C(=O)NC(=S)NC3=O)c3cc(OC)ccc32)cc1 [Compound 3k],2650

# Same assay, conditions: read-out: LC50 (the source's name)
row,Structure (SMILES),CC50 [nM]
1,COc1ccc(C(=O)n2cc(C=C3C(=O)NC(=S)NC3=O)c3cc(OC)ccc32)cc1 [Compound 3k],> 50000

# System: HCT-116 (Colon Cancer)
# Test: five dose-response growth inhibition/cytotoxicity, HCT-116
# Type: cell-based, human
# Details: not given
row,Structure (SMILES),GI50 [nM]
1,COc1ccc(C(=O)n2cc(C=C3C(=O)NC(=S)NC3=O)c3cc(OC)ccc32)cc1 [Compound 3k],1950

# Same assay, conditions: read-out: LC50 (the source's name)
row,Structure (SMILES),CC50 [nM]
1,COc1ccc(C(=O)n2cc(C=C3C(=O)NC(=S)NC3=O)c3cc(OC)ccc32)cc1 [Compound 3k],≥ 50000

# System: M14 (Melanoma)
# Test: five dose-response growth inhibition/cytotoxicity, M14
# Type: cell-based, human
# Details: not given
row,Structure (SMILES),GI50 [nM]
1,COc1ccc(C(=O)n2cc(C=C3C(=O)NC(=S)NC3=O)c3cc(OC)ccc32)cc1 [Compound 3k],2030

# Same assay, conditions: read-out: LC50 (the source's name)
row,Structure (SMILES),CC50 [nM]
1,COc1ccc(C(=O)n2cc(C=C3C(=O)NC(=S)NC3=O)c3cc(OC)ccc32)cc1 [Compound 3k],> 50000

# System: HCT-15 (Colon Cancer)
# Test: five dose-response growth inhibition/cytotoxicity, HCT-15
# Type: cell-based, human
# Details: not given
row,Structure (SMILES),GI50 [nM]
1,COc1ccc(C(=O)n2cc(C=C3C(=O)NC(=S)NC3=O)c3cc(OC)ccc32)cc1 [Compound 3k],1800

# Same assay, conditions: read-out: LC50 (the source's name)
row,Structure (SMILES),CC50 [nM]
1,COc1ccc(C(=O)n2cc(C=C3C(=O)NC(=S)NC3=O)c3cc(OC)ccc32)cc1 [Compound 3k],≥ 50000

# System: SK-MEL-5 (Melanoma)
# Test: five dose-response growth inhibition/cytotoxicity, SK-MEL-5
# Type: cell-based, human
# Details: not given
row,Structure (SMILES),GI50 [nM]
1,COc1ccc(C(=O)n2cc(C=C3C(=O)NC(=S)NC3=O)c3cc(OC)ccc32)cc1 [Compound 3k],2310

# Same assay, conditions: read-out: LC50 (the source's name)
row,Structure (SMILES),CC50 [nM]
1,COc1ccc(C(=O)n2cc(C=C3C(=O)NC(=S)NC3=O)c3cc(OC)ccc32)cc1 [Compound 3k],> 50000

# System: HOP-62 (Non-Small Cell Lung Cancer)
# Test: five dose-response growth inhibition/cytotoxicity, HOP-62
# Type: cell-based, human
# Details: not given
row,Structure (SMILES),GI50 [nM]
1,COc1ccc(C(=O)n2cc(C=C3C(=O)NC(=S)NC3=O)c3cc(OC)ccc32)cc1 [Compound 3k],3120

# Same assay, conditions: read-out: LC50 (the source's name)
row,Structure (SMILES),CC50 [nM]
1,COc1ccc(C(=O)n2cc(C=C3C(=O)NC(=S)NC3=O)c3cc(OC)ccc32)cc1 [Compound 3k],> 50000

# System: UACC-62 (Melanoma)
# Test: five dose-response growth inhibition/cytotoxicity, UACC-62
# Type: cell-based, human
# Details: not given
row,Structure (SMILES),GI50 [nM]
1,COc1ccc(C(=O)n2cc(C=C3C(=O)NC(=S)NC3=O)c3cc(OC)ccc32)cc1 [Compound 3k],2330

# Same assay, conditions: read-out: LC50 (the source's name)
row,Structure (SMILES),CC50 [nM]
1,COc1ccc(C(=O)n2cc(C=C3C(=O)NC(=S)NC3=O)c3cc(OC)ccc32)cc1 [Compound 3k],> 50000

# System: CCRF-CEM (Leukemia)
# Test: five dose-response growth inhibition/cytotoxicity, CCRF-CEM
# Type: cell-based, human
# Details: not given
row,Structure (SMILES),GI50 [nM]
1,COc1ccc(C(=O)n2cc(C=C3C(=O)NC(=S)NC3=O)c3cc(OC)ccc32)cc1 [Compound 3k],2230

# Same assay, conditions: read-out: LC50 (the source's name)
row,Structure (SMILES),CC50 [nM]
1,COc1ccc(C(=O)n2cc(C=C3C(=O)NC(=S)NC3=O)c3cc(OC)ccc32)cc1 [Compound 3k],> 50000

# System: OVCAR-3 (Ovarian Cancer)
# Test: five dose-response growth inhibition/cytotoxicity, OVCAR-3
# Type: cell-based, human
# Details: not given
row,Structure (SMILES),GI50 [nM]
1,COc1ccc(C(=O)n2cc(C=C3C(=O)NC(=S)NC3=O)c3cc(OC)ccc32)cc1 [Compound 3k],1260

# Same assay, conditions: read-out: LC50 (the source's name)
row,Structure (SMILES),CC50 [nM]
1,COc1ccc(C(=O)n2cc(C=C3C(=O)NC(=S)NC3=O)c3cc(OC)ccc32)cc1 [Compound 3k],≥ 50000

# System: SR (Leukemia)
# Test: five dose-response growth inhibition/cytotoxicity, SR
# Type: cell-based, human
# Details: not given
row,Structure (SMILES),GI50 [nM]
1,COc1ccc(C(=O)n2cc(C=C3C(=O)NC(=S)NC3=O)c3cc(OC)ccc32)cc1 [Compound 3k],1450

# Same assay, conditions: read-out: LC50 (the source's name)
row,Structure (SMILES),CC50 [nM]
1,COc1ccc(C(=O)n2cc(C=C3C(=O)NC(=S)NC3=O)c3cc(OC)ccc32)cc1 [Compound 3k],39400

# System: HL-60(TB) (Leukemia)
# Test: not given
# Details: not given
row,Structure (SMILES),GI50 [nM]
1,COc1ccc(C(=O)n2cc(C=C3C(=O)NC(=S)NC3=O)c3cc(OC)ccc32)cc1 [Compound 3k],3910

# Same assay, conditions: read-out: LC50
row,Structure (SMILES),CC50 [nM]
1,COc1ccc(C(=O)n2cc(C=C3C(=O)NC(=S)NC3=O)c3cc(OC)ccc32)cc1 [Compound 3k],> 50000

# System: U251 (CNS Cancer)
# Test: five dose-response growth inhibition/cytotoxicity, U251
# Type: cell-based, human
# Details: not given
row,Structure (SMILES),GI50 [nM]
1,COc1ccc(C(=O)n2cc(C=C3C(=O)NC(=S)NC3=O)c3cc(OC)ccc32)cc1 [Compound 3k],1930

# Same assay, conditions: read-out: LC50 (the source's name)
row,Structure (SMILES),CC50 [nM]
1,COc1ccc(C(=O)n2cc(C=C3C(=O)NC(=S)NC3=O)c3cc(OC)ccc32)cc1 [Compound 3k],> 50000

# System: LOX IMVI (Melanoma)
# Test: five dose-response growth inhibition/cytotoxicity, LOX IMVI
# Type: cell-based, human
# Details: not given
row,Structure (SMILES),GI50 [nM]
1,COc1ccc(C(=O)n2cc(C=C3C(=O)NC(=S)NC3=O)c3cc(OC)ccc32)cc1 [Compound 3k],1860

# Same assay, conditions: read-out: LC50 (the source's name)
row,Structure (SMILES),CC50 [nM]
1,COc1ccc(C(=O)n2cc(C=C3C(=O)NC(=S)NC3=O)c3cc(OC)ccc32)cc1 [Compound 3k],≥ 50000

# System: MDA-MB-435 (Melanoma)
# Test: five dose-response growth inhibition/cytotoxicity, MDA-MB-435
# Type: cell-based, human
# Details: MDA-MB-435
# Protocol: as §1, §2
row,Structure (SMILES),GI50 [nM]
1,COc1ccc(C(=O)n2cc(C=C3C(=O)NC(=S)NC3=O)c3cc(OC)ccc32)cc1 [Compound 3k],850

# Same assay, conditions: MDA-MB-435; read-out: LC50 (the source's name)
row,Structure (SMILES),CC50 [nM]
1,COc1ccc(C(=O)n2cc(C=C3C(=O)NC(=S)NC3=O)c3cc(OC)ccc32)cc1 [Compound 3k],3860

# Same assay, conditions: melanoma MDA-MB-435
row,Structure (SMILES),GI50 [nM]
1,COc1ccc(C(=O)n2cc(C=C3C(=O)NC(=S)NC3=O)c3cc(OC)ccc32)cc1 [Compound 3k],850

# System: DU-145 (Prostrate Cancer)
# Test: five dose-response growth inhibition/cytotoxicity, DU-145
# Type: cell-based, human
# Details: not given
row,Structure (SMILES),GI50 [nM]
1,COc1ccc(C(=O)n2cc(C=C3C(=O)NC(=S)NC3=O)c3cc(OC)ccc32)cc1 [Compound 3k],2410

# Same assay, conditions: read-out: LC50 (the source's name)
row,Structure (SMILES),CC50 [nM]
1,COc1ccc(C(=O)n2cc(C=C3C(=O)NC(=S)NC3=O)c3cc(OC)ccc32)cc1 [Compound 3k],> 50000

# System: K-562 (Leukemia)
# Test: five dose-response growth inhibition/cytotoxicity, K-562
# Type: cell-based, human
# Details: not given
row,Structure (SMILES),GI50 [nM]
1,COc1ccc(C(=O)n2cc(C=C3C(=O)NC(=S)NC3=O)c3cc(OC)ccc32)cc1 [Compound 3k],2550

# Same assay, conditions: read-out: LC50 (the source's name)
row,Structure (SMILES),CC50 [nM]
1,COc1ccc(C(=O)n2cc(C=C3C(=O)NC(=S)NC3=O)c3cc(OC)ccc32)cc1 [Compound 3k],> 50000

# System: KM-12 (Colon Cancer)
# Test: not given
# Details: not given
row,Structure (SMILES),GI50 [nM]
1,COc1ccc(C(=O)n2cc(C=C3C(=O)NC(=S)NC3=O)c3cc(OC)ccc32)cc1 [Compound 3k],1990

# Same assay, conditions: read-out: LC50
row,Structure (SMILES),CC50 [nM]
1,COc1ccc(C(=O)n2cc(C=C3C(=O)NC(=S)NC3=O)c3cc(OC)ccc32)cc1 [Compound 3k],≥ 50000
